| melting point [°C] | Compound |
| --- | --- |
| 226 to 228 | O=C(Nc1cccc2ccnnc12)c1c(Cl)cccc1Cl |
| 200 | O=C(Cc1cccc2ccccc12)Nc1cc([C@H]2C[C@@H](NC(=O)c3ccc4ccccc4n3)C2)[nH]n1 |
| 106 | FC(F)(F)c1cccc(Oc2nccc(-c3ccc(Cl)c(Cl)c3)n2)c1 |
| 143 to 147 | CCCc1c(C#N)ccc(NC(=NC#N)Nc2cccc(Cl)c2Cl)c1O |
| 137 to 138 | O=C(NCCc1ccccc1CO)c1ccc([N+](=O)[O-])cc1 |
| 96 to 97 | CCN(CC)C(=O)n1ccc(S(=O)(=O)c2cc(Cl)ccc2C)n1 |
| 120 to 123 | CCOC(=O)COc1ccc(Cn2c(-c3ccc(OCc4ccccc4)cc3)c(C)c3cc(OCc4ccccc4)ccc32)cc1OC |
| 262 to 265 | Cc1cc(-n2cc(-c3ccc(F)cc3F)nc2C)cc2ccc(=O)[nH]c12 |
| 234 to 240 | N#Cc1ccc(-c2ccn(-c3ccc(C#N)cc3)c2)cc1 |
| 65 to 67 | Cc1ccc(S(=O)(=O)OCC2CN(C)c3ccc(Cl)cc3O2)cc1 (centres undefined) |
| 156 to 158 | C=CC/C=C(\C(=O)O)c1cc(OC)c(O)c2c(Cc3ccccc3)cccc12 |
| 191 to 193 | OCc1cccc(-c2ccc3nnn(Cc4ccc5ncccc5c4)c3n2)c1 |
| 150 to 152 | C[C@H](NC(=O)C[C@](O)(CC(C)(C)O)c1ccccc1)c1ccc(Br)cc1 |
| 101 to 104 | COc1cccc(-c2ccc3c(c2)C2(CCCCC2)C(=NOCc2ccccc2)N3)c1 |
| 60 to 62 | CCOC(=O)C(C)Oc1ccc(Oc2nc3ccc(Cl)nc3s2)cc1 (centres undefined) |
| 108 to 110 | CN(C(=O)OC(C)(C)C)c1cc(OCc2ccccc2)ccc1[N+](=O)[O-] |
| 98 | Cc1cccc2oc(C(O)[C@H](C)NC(=O)OCc3ccccc3)nc12 (some centres undefined) |
| 112 to 113 | CCC(C)COC(=O)c1ccc(-c2ccc(O)cc2)cc1 (centres undefined) |
| 218 | O=C(c1ccc(I)cc1)c1ccc(-c2ccc(Cl)cc2)cc1 |
| 178 to 181 | O=C(Nc1ccc(C(F)(F)F)cc1)Nc1cccc(Oc2ccccc2)c1 |
| 345 | COc1ccc(S(N)(=O)=O)cc1N=Nc1c(O)c(O)c(N=Nc2cc(S(N)(=O)=O)ccc2OC)c2ccccc12 |
| 91 to 92 | COC(=O)COc1cccc2c(CCS(=O)(=O)CCc3ccccc3)c(C)oc12 |
| 234 to 237 | CCOC(=O)c1c[nH]c2c(OC)ccc(-c3ccccc3)c2c1=O |
| 120 to 121 | COC(=O)COc1cc(Cl)c(SCc2cc(-c3ccc(C(F)(F)F)cc3)on2)cc1C |
| 170 to 172 | O=C(O)COc1ccc2cc(-c3sc4ccccc4c3C(=O)Cc3ccccc3)ccc2c1Br |
| 146 | O=C1CCc2c1cccc2C(=O)c1ccc(Cl)cc1 |
| 212 | Cn1nc(-c2cnc(N)nc2-c2cccc(F)c2)ccc1=O |
| 145 | CC(=O)c1cc2ccccc2cc1C(=O)O |

| melting point [°C] | Compound |
| --- | --- |
| 360 to 361 | O=c1c2ccc(Cl)cc2[nH]c2c(O)nn(-c3ccc(Cl)cc3Cl)c(=O)c12 |
| 168 to 170 | COc1cc(C(C)=NO)ccc1OCCCN1CCC(c2noc3cc(F)ccc23)CC1 |
| 211 to 212 | CN(c1cccc2cc(C(=O)NCC3(SCc4ccccc4)CCC4(CC3)OCCO4)[nH]c12)S(=O)(=O)c1cccs1 |
| 85 | COC(=O)C(C)(C)Oc1ccc(C(=O)c2cccs2)cc1 |
| 144 to 145 | CCCCC(=O)c1c(-c2ccc3cc(OC(Cc4ccccc4)C(=O)O)ccc3c2)oc2ccccc12 (centres undefined) |
| 115 to 116 | CCCCCC(=O)NCCc1ccc(S(=O)(=O)NC(=O)c2ccc(C(=O)NCC(=O)O)nc2)cc1 |
| 188 to 189 | O=C(C=Cc1ccc2c(c1)OCO2)c1cccc(O)c1 |
| 244 to 246 | CC(C)Cn1cnc2c(N)nc3ccc(-c4cccnc4)cc3c21 |
| 300 to 302 | CC(C)c1ccc(C(=O)C2=C(O)C(=O)N(c3ncc(S(=O)(=O)c4ccc([N+](=O)[O-])cc4)s3)C2c2ccc(C(F)(F)F)cc2)cc1 (centres undefined) |
| 167 to 168 | Cc1c(C(=O)Nc2ccc(CN3CCC(N4CCOCC4)CC3)c(C#N)c2)cnn1-c1ccc(Cl)cc1 |
| 180 | O=C1CCC(c2ccccc2)(c2ccccc2)C2CN(C(Cc3ccccc3)=NCc3ccc(F)cc3)CC12 (centres undefined) |
| 55 to 57 | COc1cc(C(=O)N2CCC(CCN3CCC(C(=O)c4nc5ccccc5n4Cc4ccc(F)cc4)CC3)(c3ccc(C(F)(F)F)cc3)C2)cc(OC)c1OC (centres undefined) |
| 241 to 242 | COc1ccnc(CCc2nc3cc(-c4ccc(C#N)cc4)cnc3[nH]2)c1 |
| 253 to 255 | CN(N=Cc1ccccc1C(=O)O)c1nc2ccccc2o1 |
| 194 to 196 | COc1ccc(C2(C#N)CCC(C(=O)O)CC2)c2c1oc1ccccc12 (centres undefined) |
| 206 to 207 | CC1CN(c2ccc(C(N)=O)cc2)CC(C)N1CCC1OCCc2ccccc21 (centres undefined) |
| 184 to 188 | O=C(CC(=O)C(CF)CF)c1ccc(OCc2ccccc2)cc1 |
| 146 to 147 | OC(c1ccccc1)c1nc(-c2ccncc2)cs1 (centres undefined) |
| 120 to 122 | O=C(c1cccc(OCCCN2C(=O)c3ccccc3C2=O)c1)N1CCCCC1 |
| 144 to 146 | CCOc1ccc(Nc2ncccc2NS(=O)(=O)c2ccc(OC)cc2)cc1 |
| 142 to 144 | N#Cc1cccc(C(=O)Cc2ccnnc2)c1 |
| 72 to 74 | COC(=O)C[C@H](O)CC(=O)C=Cc1c(-c2ccc(F)cc2)c(-c2ccccc2)c(C(=O)Nc2ccccc2)n1C(C)C |
| 146 to 148 | O=C(NC1CCN(CCC2CCOc3ccccc32)CC1)c1cc2ccccc2o1 (centres undefined) |
| 155 | ON=C(Cc1ccc(F)cc1)c1ccncc1 |
| 169 to 171 | OCc1c(CO)c(-c2ccccc2)n2c1Cc1ccccc1-2 |
| 78 to 80 | C=C(C)c1ccc(OCCO)cc1 |
| > 300 | O=S(=O)(O)c1ccc(Nc2ncnc3cc(Cl)ccc23)cc1 |

The remaining lines, values behind:

| Compound | melting point [°C] |
| --- | --- |
| Cc1c(Br)c2c(c(C)c1NC(=O)OC(C)(C)C)C(N(C)C)C(C)(C)O2 (centres undefined) | 111 to 112 |
| CC(=O)OCC1OC(n2c(Cl)nc3c(Br)c(Br)ccc32)C(OC(C)=O)C1OC(C)=O (centres undefined) | 129 to 130 |
| CCn1ncc(C(=O)c2ccc(S(C)(=O)=O)c(C(=O)OC)c2C)c1O | 150 to 152 |
| O=C1CCC(N2C=Nc3ccccc3CC2)C(=O)N1 (centres undefined) | 84 to 91 |
| COC(=O)CCC(=O)c1cc(C(=O)N(C)C)cs1 | 98 to 100 |
| CN1CCc2cc(Cl)c(N)cc2[C@@H](c2ccccc2)C1 | 68 to 70 |
| Cc1cc(NC2=NCCN2)n(C(C)C)n1 | 173 to 175 |
| CCOC(=O)c1cc2ccc(CBr)cc2o1 | 95 to 102 |
| CC1(CCCCn2c(=O)oc3ccccc32)Cn2cc([N+](=O)[O-])nc2O1 (centres undefined) | 155 to 158 |
| COc1ccc2c(c1)C=C(C(O)C(F)(F)F)CC2 (centres undefined) | 66 to 68 |
| CCNC(=O)Oc1cccc(NC(=O)CC(C)=O)c1 | 138 |
| CC(c1ccc(Cl)cc1Cl)n1nc(C(=O)O)cc1-c1ccc(Cl)cc1 (centres undefined) | 80 |
| C[Si](C)(C)c1ccc(Cl)c(Cl)c1C(=O)O | 117 to 119 |
| O=C(O)c1cc(=O)n(Cc2ccc(S(=O)(=O)O)cc2S(=O)(=O)O)[nH]1 | > 300 |
| CCOc1ccc2c(c1)CC2C#N (centres undefined) | 50 to 52 |
| CC(C)(C)OC(=O)N1C[C@@H](F)C[C@H]1C(=O)O | 158 to 159 |
| O=C(NCCCCOc1cc(CN2CCCCC2)ccn1)c1cn[nH]c1 | 145 to 147 |
| Cc1ccn2c(C)c(CCc3ccc4nc(N(C)C)oc4c3)nc2c1 | 67 to 69 |
| CCOP(=O)(Cc1ccc(C2=NCCO2)cc1)OCC | 65 |
| COc1ccc([N+](=O)[O-])c(CS(=O)(=O)c2ccccc2)n1 | 147 to 149 |
| O=S(=O)(F)c1cc(S(=O)(=O)F)cc(S(=O)(=O)F)c1 | 166 to 168 |
| Cc1noc(NS(=O)(=O)c2cccc(Cl)c2C)c1Br | 185 to 187 |

| Compound | melting point [°C] |
| --- | --- |
| CC1(C)CCC(C)(C)c2c(C(O)C#C[Si](C)(C)C)cc(-c3ccccc3)cc21 (centres undefined) | 145 |
| CCOC(=O)C1=C(C)NC(c2csc(N)n2)=NC1c1ccc(F)cc1Cl (centres undefined) | 95 to 110 |
| O=C1C=CC(=O)N1CCN1C(=O)C=CC1=O | 193 to 194 |
| COc1cc(OC)c2c(=O)cc(-c3nc4ccccc4[nH]3)oc2c1 | 245 to 246 |
| COc1ccc(Cl)c(S(=O)(=O)NC(=O)c2nc3c(Cl)cc(C(F)(F)F)cn3c2C)c1 | 222 to 223 |
| COc1ccc(C=Cc2cc(OC)c(OC)c(OC)c2)c(O)c1O | 114 to 115 |
| CCOC(=O)c1cnc2c(cnn2CCC(C)C)c1O | 65 to 70 |
| Clc1ccc2oc(CBr)cc2c1 | 70 |
| c1ccc2nc3[nH]ncc3cc2c1 | 104 to 106 |
| CC(C)(C)c1cc(C(=O)NN(C(=O)O)C(C)(C)C)cc(C(C)(C)C)c1O | 196 |
| CC(C)(C)NC(=O)[C@@H]1C[C@H](Cl)CN1C(=O)[C@@H](O)[C@@H](N)Cc1ccccc1 | 126 to 130 |
| CS(=O)(=O)Nc1cc2c(cc1Oc1ccccc1)CCO2 | 133 |
| CCc1cc(Cl)c2cccc(OC)c2n1 | 80 to 81 |
| O=C1OCc2cccc(CBr)c21 | 128 to 131 |
| O=C(O)C1=Cc2cc(SC(F)(F)F)ccc2OC1C(F)(F)F (centres undefined) | 139 to 143 |
| Nc1nnc(C(F)(F)F)c2c1cc1cccc(CCCN3CC4CCC(CC4)C3)n12 | 252 to 253 |
| CCOCCOc1c(C)cc(Oc2ccc3c(c2)C=C(C(=O)O)CCS3(=O)=O)cc1C | 149 to 153 |
| Cc1ccc(C2(O)CCCCC2C(c2ccccc2)N(C)C)cc1 (centres undefined) | 168 to 169 |
| O=C(O)c1cccc(OCC(=O)C23CC4CC(CC(C4)C2)C3)c1 | 156 |
| C=CC(O)C(NC=O)C(=O)OCC (centres undefined) | 50 to 51 |
| CCc1cc(C)cc(CC)c1C1C(=O)N2CCOCCN2C1=O | 193 to 194 |
| ClCc1cn2cc(Cl)ccc2n1 | 123 to 124 |

Reference: a melting point compilation (Tetko et al.; mined from patent text by program, amines drawn as free bases though some values may be those of a salt)
